Laboratory results from patent US5279956A, “Activated protein C polypeptides and anti-peptide antibodies, diagnostic methods and systems for inhibiting activated protein C” (The Scripps Research Institute, priority 1991, dated 1994).
Like-named read-outs stand apart in the source and are kept apart here. No end group written: not given here.

Legend:
APC [1] = molecular target: T1, APC (Homo sapiens, UniProt P04070); assay: Amidolytic activity of APC towards chromogenic substrate S-2366; type: biochemical; settings: for effect on APC amidolytic activity towards S-2366: all concentrations up to 500 μM
T1 construct: begins at amino acid residue position 158 and ends at 419; The light chain is 155 amino acid residues in length; tissue Factor IX concentrate from Immuno AG, Vienna; thrombin from Enzyme Research Laboratories
Procedure: The effects of PC-derived inhibitory synthetic peptides on the amidolytic activity of APC were evaluated to determine if the peptides inhibited APC anticoagulant activity by blocking a region in or close to the active site of the enzyme involved in cleavage of a small substrate such as S-2366 (Kabi-Vitrum) or involved in the site of interaction with the recombinant mutant (Arg^358)α1 -antitrypsin (α1 -AT) (Transgene, Strasbourg, France), the latter of which is described in Example 5a4) below. The assay was performed as described by Marlar et al., supra; and Suzuki et al., supra.
The amidolytic activity of APC toward the peptide substrate S-2366 was measured in the presence of various PC synthetic peptides prepared in Example 1. For the assay, 100 μl of 15 nM APC, prepared in Example 2c2), was admixed with separate aliquots of peptide-(390-404) ranging in concentration from 0.0 to 750 μM prepared in TBS-BSA at pH 7.4 containing 0.02% NaN3 and 2 mM CaCl2 to form APC-peptide admixtures, respectively. After maintenance of the admixtures for 30 minutes at 37° C., 50 μl of 2.4 mM S-2366 in the same buffer was admixed to initiate the amidolytic reaction. The hydrolysis of the substrate was monitored by the change in absorbance at 405 nm at 37° C. over time using an EL312 Microplate Bio-Kinetics Reader (BIO-TEK Instruments, Inc. Vt.).
The amidolytic activity of APC toward the peptide substrate S-2366 was measured in the presence of anti-(390-404) antibody. For the assay, 100 μl of 15 nM APC, prepared in Example 2c2), were admixed with separate aliquots of anti-(390-404) antibody ranging in concentration from 0.0 to 500 nM prepared in TBS-BSA at pH 7.4 containing 0.02% NaN3 and 2 mM CaCl2 to form APC-anti-(390-404) antibody immunoreaction admixtures, respectively. After maintenance of the admixtures for 30 minutes at 37° C. to allow formation of immunoreaction products, 50 μl of 2.4 mM S-2366 in the same buffer was admixed to initiate the amidolytic reaction. The hydrolysis of the substrate was monitored by the change in absorbance at 405 nm over time using an EL312 Microplate Bio-Kinetics Reader (BIO-TEK Instruments, Inc. Vt.).

APC [2] = molecular target: T1, APC; assay: APC anticoagulant activity, APTT and Xa-1-stage coagulation assays (mean or both); type: biochemical; settings: for inhibition at 500 µM: 500 μM peptide, mean of APTT and Xa-1-stage assays, 0 = no observable effect ± 10%; for IC50: final peptide concentration at which 50% inhibition of APC activity was observed
Procedure: The effect of the synthetic peptides on APC anticoagulant activity were determined using the APTT assay in the presence of either normal citrate anticoagulated plasma (NHP) or protein S depleted plasma (PSDP). The assays were performed essentially as described. See Marlar et al., Blood, 59:1067-1072 […]; Suzuki et al., J. Biol. Chem., 258:163-168 (1983); Gruber et al., Blood, 73:639-642 (1989); Ohlin et al., Biochem., 29:644-651 (1990). NHP was purchased from George King Bio-Medical, Inc. (Overland Park, Kans.). PSDP was prepared from a normal human citrate-anticoagulated plasma pool from ten healthy donors. Protein S was immunodepleted from the NHP by immunoaffinity chromatography of NHP over an anti-protein S antibody column to form PSDP. The anti-protein S antibody column was prepared by coupling 100 mg of a monoclonal, high-affinity, calcium-independent anti-PS antibody, designated S7, to 30 ml of CNBr-activated Sepharose 4B (Pharmacia) as described in Example 2c1).
For the APTT assay, APC was prepared as described in Example 2c2). […] The concentration of the APC used in the assay was initially optimized with respect to the sensitivity of the assay towards APC-induced prolongation of clotting time compared to clotting time without APC.
Once the optimal concentration of APC was determined, peptides from Table 2 were then separately admixed for a final concentration of 500 μM with 10 nM APC in 100 μl of TBS-BSA at pH 7.4 to form peptide-APC admixtures. The resulting admixtures were maintained for seven minutes at 37° C. Separate aliquots of peptides maintained under the same conditions in the absence of APC served as controls for the inhibitory effect of synthetic peptides on APC anticoagulant activity. After the maintenance period, 100 μl of NHP and 100 μl APTT-reagent Thrombosil (Ortho Diagnostics, Raritan, N.J.) were admixed into each peptide admixture and maintained for 200 seconds at 37° C. to form a pre-coagulation admixture. In some experiments, PSDP was used in the place of NHP to determine the effect of Protein S on the assay system. Coagulation was then initiated by the admixture of 100 μl of 30 mM CaCl2 in TBS prewarmed to 37° C. to each of the pre-coagulation admixtures. The time for clot formation was measured by an Electra 700 Automatic Coagulation Timer (Medical Laboratory Automation, Inc., Mount Vernon, N.Y.). Each peptide's effect was determined in duplicate.
The synthetic peptides listed in Table 4 are presented in the same order as listed in Table 2, i.e., are reproduced from Table 2. […] For peptides at a concentration of 500 μM that inhibited at least 50% of APC anticoagulant activity, analysis of dose-response was subsequently conducted. The column in Table 4 labeled "Inhibition of APC" represents the inhibition of APC anticoagulant activity measured with 500 μM peptide.
For testing the inhibition of the synthetic peptides on APC activity described above, Xa-1-stage coagulation assays were also performed as described. See Seegers et al., Thrombosis Res., 13:233-243 (1978); Marlar et al., supra; and Walker et al., J. Biol. Chem. 265:1484-1489 (1990).

[3] = final peptide concentration at which 90% inhibition of APC activity was observed, read-out: IC90

T1 sequence (P04070 212-461): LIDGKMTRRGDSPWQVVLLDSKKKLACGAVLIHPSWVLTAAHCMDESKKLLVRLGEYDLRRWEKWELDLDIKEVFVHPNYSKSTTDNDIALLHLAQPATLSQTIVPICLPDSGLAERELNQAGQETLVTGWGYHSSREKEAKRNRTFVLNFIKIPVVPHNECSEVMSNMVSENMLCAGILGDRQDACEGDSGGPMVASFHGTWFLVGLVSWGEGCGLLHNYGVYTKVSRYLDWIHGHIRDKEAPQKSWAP
T1 sequence (P04070 43-197): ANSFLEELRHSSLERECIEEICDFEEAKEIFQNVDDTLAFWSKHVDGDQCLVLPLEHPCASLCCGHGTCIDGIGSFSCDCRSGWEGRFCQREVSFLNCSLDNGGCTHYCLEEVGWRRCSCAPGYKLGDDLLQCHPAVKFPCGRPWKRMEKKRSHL

Substance	APC amidolytic activity towards S-2366, A405 /5 min (APC [1]; APC + 500 μM peptide) [A405 /5 min]	effect on APC amidolytic activity towards S-2366 (APC [1])	inhibition at 500 µM (APC [2]) [%]	IC90 (APC [2]; [3]) [µM]	APC amidolytic activity towards S-2366, A405 /5 min (APC [1]; APC + 250 μM peptide) [A405 /5 min]	IC90 (APC [2]) [µM]	IC50 (APC [2]) [µM]
SGLLHNYGVYTKVSR-NH2 [peptide-(384-398), -SGLLHNYGVYTKVSR]	0.378	did not significantly alter	60	> 500			
KRNRTFVLNFIKIPV-NH2 [peptide-(311-325), KRNRTFVLNFIKIPV]		did not significantly alter			0.342	50	20
YGVYTKVSRYLDWIH-NH2 [peptide-(390-404), YGVYTKVSRYLDWIH]			100	40			5
